Data set [1] has as its system colonic micro flora (caecal contents of the rat). The data set is described as follows: In vitro dissolution (drug release) of natural gum based 5-FU delivery systems in medium containing caecal contents of orally treated rats. Type of data set: physicochemical, Wister Albino rats. Particulars: label = treatment given p.o. to the rats whose caecal contents (4% w/v) were used, 5-FU 8 mg/day, probiotics 1 g/day, pH 1.2 for 2 h, pH 6.8 for 3 h, then caecal medium. As for the experimental part: (§1) To answer the questions as above, the inventors adopted an innovative experimental approach using a ‘living biological system’ comprising rats. All the experimental procedures were approved by the Institutional Animal Ethics Committee vide Approval Number 954/ac/06/CPCSEA/09/19. The experimental study was conducted on thirty Wister Albino rats. The animals were divided into 6 groups of five each.
(§2) The dosages were freshly prepared every day by suspending in milk. They were administered by oral gavage needle for first and subsequent exposure for a duration of five days each, at an interval of 20 days.
2 animals from each group were humanely sacrificed for the collection of caecal contents in sterile petri plates, which was immediately utilized for the dissolution studies. For dissolution studies, compression coated tablets of 5-FU with natural gums and microspheres of 5-FU with natural gums were used. The experiments were carried out in 250 ml beaker immersed in water maintained in the jars of dissolution test apparatus. Initial studies were carried out in 150 ml of 0.1N HCl (pH 1.2) for 2 h. After this, NaOH was added to the dissolution media and the pH was adjusted to 6.8. The volume was made up to 200 ml with phosphate buffer of pH 6.8. The study was continued for 3 hours after which, caecal contents (4% w/v) were added. […]

The next data set concerns Albino Wister Rats. Kind of data set: Unwanted side-effects on oral administration in rats (hair, body weight, diarrhea, caecal contents, colon histopathology). The data set is classed as in vivo. The settings on record: p.o., 5-FU 8 mg/day for 5 days, probiotics 1 g/day where given. As for the experimental part:
as §1, §2
To address whether the unwanted side-effects of colonic drugs e.g. diarrhea, hair loss etc. could also be reduced or eliminated using the ‘innovative approach’ of the present invention, trials were conducted in animals (rats) using 5-FU as a ‘model’.

“Also recorded” adds a separate entry of the source.

Regarding `O=c1[nH]cc(F)c(=O)[nH]1` [5-FU powder, 5-Fluorouracil], the “% drug released in 24 h on exposure to caecal contents of the rat: Compression coated tablets of 5-FU coated with natural gums” value in data set [1] (excipient-only control rats: 83) was 52%. Moreover, the “% drug released in 24 h on exposure to caecal contents of the rat: 5-FU loaded microspheres comprising the drug and natural gums” value in data set [1] (excipient-only control rats: 92.20) is 41.56%. In addition, in the data set on Albino Wister Rats, the body weight loss result is “loss”; the diarrhea result is recorded as “bloody diarrhea”; the “histopathological examination of the colon” value was “ulceration and loss of epithelial lining; also recorded: diffuse ulceration of the colonic mucosa with loss of lining epithelium”; the loss of hair result is “loss of hair”. Also, in the data set on Albino Wister Rats (listed as 5-FU), the body weight loss entry is listed as “loss of weight”; the loss of hair entry was “loss of weight and hair”.

The values are drawn from patent US20140154312A1, “ORAL TARGETTED DRUG DELIVERY SYSTEM” (priority 2010, published 2014).
